Assay results taken from the NIST ThermoML archive (doi:10.1016/j.jct.2016.08.006).

Legend:
[1] = molar heat capacity at constant pressure; details: 101.3 kPa, Liquid, Small sample (50 mg) DSC
[2] = molar heat capacity at constant pressure; xn = mol fraction of the nth substance listed; details: 101.3 kPa, Liquid, Small sample (50 mg) DSC, x2 = 0

NCCN1CCNCC1 [N-(β-aminoethyl)piperazine)]
[1]
Details	molar heat capacity at constant pressure [J/K/mol]
303.2 K	289.7
308.2 K	290.8
313.2 K	293.1
318.2 K	294.7
323.2 K	296.9
328.2 K	298.5
333.2 K	300.7
338.2 K	302.2
343.2 K	303.3
348.2 K	303.6
353.2 K	304.6

O [water] + NCCN1CCNCC1
[2]
Details	molar heat capacity at constant pressure [J/K/mol]
303.2 K	75.26
308.2 K	75.27
313.2 K	75.29
318.2 K	75.31
323.2 K	75.29
328.2 K	75.32
333.2 K	75.41
338.2 K	75.44
343.2 K	75.48
348.2 K	75.55
353.2 K	75.78

Cc1ccccc1 [toluene]
[1]
Details	molar heat capacity at constant pressure [J/K/mol]
303.2 K	159.1
308.2 K	160.4
313.2 K	161.6
318.2 K	163
323.2 K	164.1
328.2 K	165.5
333.2 K	167
338.2 K	168.6
343.2 K	170.4
348.2 K	172.8
353.2 K	175.1

CNCCN(C)C [N,N,N'-trimethylethylenediamine]
[1]
Details	molar heat capacity at constant pressure [J/K/mol]
303.2 K	258.3
308.2 K	260
313.2 K	262.7
318.2 K	265.3
323.2 K	269.2
328.2 K	272.7
333.2 K	276
338.2 K	278.9
343.2 K	281.3
348.2 K	283.4
353.2 K	286.6

O [water] + CNCCN(C)C
[2]
Details	molar heat capacity at constant pressure [J/K/mol]
303.2 K	75.26
308.2 K	75.27
313.2 K	75.29
318.2 K	75.31
323.2 K	75.29
328.2 K	75.32
333.2 K	75.41
338.2 K	75.44
343.2 K	75.48
348.2 K	75.55
353.2 K	75.78

O [water]
[1]
Details	molar heat capacity at constant pressure [J/K/mol]
303.2 K	75.26
308.2 K	75.27
313.2 K	75.29
318.2 K	75.31
323.2 K	75.29
328.2 K	75.32
333.2 K	75.41
338.2 K	75.44
343.2 K	75.48
348.2 K	75.55
353.2 K	75.78
